Here are results for 16 molecules from ChEMBL document CHEMBL1156089, “Anthranilic sulfonamide CCK1/CCK2 dual receptor antagonists I: discovery of CCKR1 selectivity in a previously CCKR2-selective lead series” (Bioorg Med Chem Lett, 2009).

Test [1] deals with T1, Cholecystokinin receptor type A (Homo sapiens, UniProt P32238).
T1 sequence (P32238 whole entry): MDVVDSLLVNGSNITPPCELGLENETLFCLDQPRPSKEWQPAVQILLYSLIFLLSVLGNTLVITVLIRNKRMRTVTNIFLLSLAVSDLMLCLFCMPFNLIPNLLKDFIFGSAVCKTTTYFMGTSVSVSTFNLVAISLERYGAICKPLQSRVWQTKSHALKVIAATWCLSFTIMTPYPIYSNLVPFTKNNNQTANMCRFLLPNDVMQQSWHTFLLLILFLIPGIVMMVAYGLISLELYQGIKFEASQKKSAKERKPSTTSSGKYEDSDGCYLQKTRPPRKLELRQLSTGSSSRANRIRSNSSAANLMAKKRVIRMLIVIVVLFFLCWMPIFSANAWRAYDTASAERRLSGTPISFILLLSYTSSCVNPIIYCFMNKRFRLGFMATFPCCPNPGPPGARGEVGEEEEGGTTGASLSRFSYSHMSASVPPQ
As to the kind of experiment: Displacement of [125I]-CCK-8S from CCK1R after 100 mins by liquid scintillation counting. For orientation: Loss of bound radioactivity is the signal in a displacement assay; it reports binding, not function.

Test [2] addresses T2, Gastrin/cholecystokinin type B receptor (Homo sapiens, UniProt P32239).
T2 sequence (P32239 whole entry): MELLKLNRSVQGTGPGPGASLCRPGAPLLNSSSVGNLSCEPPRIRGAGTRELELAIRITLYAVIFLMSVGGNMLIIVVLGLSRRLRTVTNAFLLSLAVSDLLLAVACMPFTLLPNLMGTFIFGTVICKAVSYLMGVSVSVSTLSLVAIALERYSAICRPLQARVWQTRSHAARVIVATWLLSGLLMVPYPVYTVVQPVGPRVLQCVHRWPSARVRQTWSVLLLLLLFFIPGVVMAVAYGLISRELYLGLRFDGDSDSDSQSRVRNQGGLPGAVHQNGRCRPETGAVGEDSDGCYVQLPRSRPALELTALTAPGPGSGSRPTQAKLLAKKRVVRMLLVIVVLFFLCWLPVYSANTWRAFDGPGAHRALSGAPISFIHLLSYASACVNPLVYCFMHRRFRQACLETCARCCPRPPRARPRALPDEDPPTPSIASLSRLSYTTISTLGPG
As to the kind of experiment: Displacement of [125I]-CCK-8S from CCK2R after 100 mins by liquid scintillation counting.

Consider `O=C(NCCc1ccccc1)c1ccc(Br)cc1NS(=O)(=O)c1cccc2nsnc12`, for which the Ki in test [1] was 398 nM; in test [2], 631 nM.

For the molecule `O=C(N[C@H](Cc1ccc(Cl)cc1)C(=O)O)c1ccc(Cl)cc1NS(=O)(=O)c1cccc2nsnc12`, the values for the Ki in test [1] and in test [2] were 316 nM and 631 nM, respectively.

Take `CN(CCc1ccccc1)C(=O)c1ccc(Cl)cc1NS(=O)(=O)c1cccc2nsnc12`: the inhibitory constant (Ki) in test [1] was 3980 nM; in test [2], 316 nM.

`CC(CNC(=O)c1ccc(Cl)cc1NS(=O)(=O)c1cccc2nsnc12)c1ccc(Cl)cc1` (racemic) gave a Ki in test [1] of 100 nM.

Turning to `O=C(N[C@H](Cc1ccccc1)C(=O)O)c1ccc(Cl)cc1NS(=O)(=O)c1cccc2nsnc12`, the Ki is 3160 nM in test [1] and 158 nM in test [2].

`O=C(N[C@H](C(=O)O)C(c1ccc(Cl)cc1)c1ccc(Cl)cc1)c1ccc(Cl)cc1NS(=O)(=O)c1cccc2nsnc12` showed a Ki in test [1] above 10000 nM.

On to `O=C(NCCc1ccc(Cl)cc1)c1ccc(Cl)cc1NS(=O)(=O)c1cccc2nsnc12`, for which the Ki was 1000 nM in test [1] and above 10000 nM in test [2].

`O=C(N[C@@H](Cc1ccc(Cl)cc1)C(=O)O)c1ccc(Cl)cc1NS(=O)(=O)c1cccc2nsnc12`: the Ki in test [1] was 2000 nM; in test [2], 63.1 nM.

For the molecule `O=C(NCCCc1ccccc1)c1ccc(Cl)cc1NS(=O)(=O)c1cccc2nsnc12`, the Ki is 2000 nM in test [1] and 1000 nM in test [2].

Molecule `O=C(NCC(c1ccc(Cl)cc1)c1ccc(Cl)cc1)c1ccc(Cl)cc1NS(=O)(=O)c1cccc2nsnc12` had a Ki in test [2] above 10000 nM.

Molecule `O=C(NCc1ccccc1)c1ccc(Cl)cc1NS(=O)(=O)c1cccc2nsnc12` had a Ki in test [1] above 10000 nM.

For the molecule `C[C@H](c1ccc(Cl)c(Cl)c1)[C@@H](NC(=O)c1ccc(Cl)cc1NS(=O)(=O)c1cccc2nsnc12)C(=O)O`, the Ki was 200 nM in test [1] and 1580 nM in test [2].

`O=C(NCCc1ccc(Cl)c(Cl)c1)c1ccc(Cl)cc1NS(=O)(=O)c1cccc2nsnc12`: the values for the Ki in test [1] and in test [2] were 79.4 nM and 7940 nM, respectively.

As for `CC(C)(c1ccc(Cl)cc1)[C@H](NC(=O)c1ccc(Cl)cc1NS(=O)(=O)c1cccc2nsnc12)C(=O)O`, the Ki in test [2] is 1000 nM.

As for `O=C(N[C@@H](Cc1ccccc1)C(=O)O)c1ccc(Cl)cc1NS(=O)(=O)c1cccc2nsnc12`, the results for the Ki in test [1] and in test [2] were 3980 nM and 79.4 nM, respectively.

With `O=C(NCCc1ccccc1)c1ccc(Cl)cc1NS(=O)(=O)c1cccc2nsnc12`, the Ki in test [1] is 158 nM; in test [2], 6310 nM.

By Ki is commonly meant the equilibrium dissociation constant of an inhibitor or competing ligand from its target. Low readings indicate higher affinity, high ones lower affinity.
